Laboratory results published in US8912216B2, “Hetaryl-[1,8]naphthyridine derivatives” (Merck Patent GmbH, priority 2010, dated 2014).

Legend:
[1] = target: T1, GST-ALK5 (Homo sapiens, UniProt P36897); assay: In-vitro (enzyme) kinase assay, 384-well flashplate (Example 36); assay type: biochemical; settings: GST-ALK5, GST-SMAD2 substrate, 3 mM ATP, 30° C., 45 min; read-out: TβR activity (Example 36)
T1 sequence (P36897 34-503): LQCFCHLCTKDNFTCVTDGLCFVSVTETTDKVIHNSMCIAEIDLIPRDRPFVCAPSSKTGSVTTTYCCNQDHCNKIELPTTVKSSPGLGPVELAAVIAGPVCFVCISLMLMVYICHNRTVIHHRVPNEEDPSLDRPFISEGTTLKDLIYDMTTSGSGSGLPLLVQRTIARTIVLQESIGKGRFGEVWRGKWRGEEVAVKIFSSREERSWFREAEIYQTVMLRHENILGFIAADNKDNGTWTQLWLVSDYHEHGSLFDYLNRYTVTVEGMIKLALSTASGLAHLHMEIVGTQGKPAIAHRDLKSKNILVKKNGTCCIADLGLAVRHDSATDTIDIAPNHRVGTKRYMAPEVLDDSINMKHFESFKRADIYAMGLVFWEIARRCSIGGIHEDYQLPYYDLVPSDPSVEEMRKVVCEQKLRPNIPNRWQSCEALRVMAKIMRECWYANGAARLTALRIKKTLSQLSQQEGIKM
Summary of the method: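 Radiometric flashplate assay: 31.2 nM GST-ALK5 phosphorylating 439 nM GST-SMAD2 with 3 mM ATP plus ³³P-ATP, in HEPES/MgCl2/MnCl2/DTT/BSA buffer pH 7.4, 45 min at 30 °C, 5-10 compound concentrations. EDTA stop, filtration and washing, then radioactivity counted; IC50 derived from the curve.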

[2] = test system: TGF-beta-induced phosphorylation of Smad2 and Smad3 in Mv1-Lu cells; assay: Inhibition of Smad2/3 phosphorylation in Mv1Lu cells (Example 35A); assay type: cell-based, mink Mustela vison; settings: Neogale vison, Mv1-Lu cells, TGF-beta 1 5 ng/ml, phospho-Smad2/3 ELISA, read-out: TβR activity (Example 35A)
Summary of the method: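 Serum-starved (16-20 h) Mv1-Lu mink lung epithelial cells were pre-incubated 1.5 h with compound dilutions (0.2% DMSO), then stimulated 1 h with 5 ng/ml TGF-beta 1. Phospho-Smad2 (Ser465/467)/Smad3 (Ser423/425) in lysates was measured by ELISA. IC50 came from dose-response fits between stimulated and unstimulated controls.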

SMILES | IC50 [1] | IC50 [2]
CN1CCN(c2ccc(-c3cc(-c4cc(-c5cc(Cl)ccc5F)nc5ncccc45)cnn3)cc2)CC1 [compound 117, 2-(5-Chloro-2-fluoro-phenyl)-4-{6-[4-(4-methyl-piperazin-1-yl)-phenyl]-pyridazin-4-yl}-[1,8]naphthyridine] | 100 to 1000 nM | 100 to 1000 nM
CN1CCN(c2cc(-c3cncc(-c4cc(-c5cc(Cl)ccc5F)nc5ncccc45)c3)ncn2)CC1 [compound 119, 2-(5-Chloro-2-fluoro-phenyl)-4-{5-[6-(4-methyl-piperazin-1-yl)-pyrimidin-4-yl]-pyridin-3-yl}-[1,8]naphthyridine] | 100 to 1000 nM | 100 to 1000 nM
CC(=O)Nc1ccc(-c2cncc(-c3cc(-c4cc(Cl)ccc4F)nc4ncccc34)c2)nn1 [compound 122, N-(6-{5-[2-(5-Chloro-2-fluoro-phenyl)-[1,8]naphthyridin-4-yl]-pyridin-3-yl}-pyridazin-3-yl)-acetamide] | 100 to 1000 nM | 100 to 1000 nM
CCN1CCC(c2ccc(-c3cncc(-c4cc(-c5cc(F)ccc5F)nc5ncccc45)c3)cc2)CC1 [compound 123, 2-(2,5-Difluoro-phenyl)-4-{5-[4-(1-ethyl-piperidin-4-yl)-phenyl]-pyridin-3-yl}-[1,8]naphthyridine] | < 100 nM | < 100 nM
CCOC(=O)c1cccc(-c2cncc(-c3cc(-c4cc(Cl)ccc4F)nc4ncccc34)c2)n1 [compound 124, 5′-[2-(5-Chloro-2-fluoro-phenyl)-[1,8]naphthyridin-4-yl]-[2,3′]bipyridinyl-6-carboxylic acid ethyl ester] | 1000 to 10000 nM | 100 to 1000 nM
Fc1ccccc1-c1cc(-c2cncc(-c3cccnc3)c2)c2cccnc2n1 [compound 125, 4-[3,3′]Bipyridinyl-5-yl-2-(2-fluoro-phenyl)-[1,8]naphthyridine] | 1000 to 10000 nM | 1000 to 10000 nM
CN1CCC(NC(=O)c2cccc(-c3cncc(-c4cc(-c5cc(Cl)ccc5F)nc5ncccc45)c3)c2)CC1 [compound 126, 3-{5-[2-(5-Chloro-2-fluoro-phenyl)-[1,8]naphthyridin-4-yl]-pyridin-3-yl}-N-(1-methyl-piperidin-4-yl)-benzamide] | 100 to 1000 nM | 100 to 1000 nM
CNC(=O)c1cccc(-c2cncc(-c3cc(-c4cc(Cl)ccc4F)nc4ncccc34)c2)n1 [compound 127, 5′-[2-(5-Chloro-2-fluoro-phenyl)-[1,8]naphthyridin-4-yl]-[2,3′]bipyridinyl-6-carboxylic acid methylamide] | 1000 to 10000 nM | > 10000 nM
Cc1ccn(-c2cc(-c3cncc(-c4ccc(N5CCN(C)CC5)cc4)c3)c3cccnc3n2)n1 [compound 128, 4-{5-[4-(4-Methyl-piperazin-1-yl)-phenyl]-pyridin-3-yl}-2-(3-methyl-pyrazol-1-yl)-[1,8]naphthyridine] | 1000 to 10000 nM | 1000 to 10000 nM
Nc1cccnc1-c1cncc(-c2cc(-c3cc(Cl)ccc3F)nc3ncccc23)c1 [compound 129, 5′-[2-(5-Chloro-2-fluoro-phenyl)-[1,8]naphthyridin-4-yl]-[2,3′]bipyridinyl-3-ylamine] | > 10000 nM | > 10000 nM
CN1CCN(c2ccc(-c3cnnc(-c4cc(-c5cc(Cl)ccc5F)nc5ncccc45)c3)cc2)CC1 [compound 130, 2-(5-Chloro-2-fluoro-phenyl)-4-{5-[4-(4-methyl-piperazin-1-yl)-phenyl]-pyridazin-3-yl}-[1,8]naphthyridine] | 1000 to 10000 nM | 1000 to 10000 nM
O=C1COc2ccc(-c3cncc(-c4cc(-c5cc(Cl)ccc5F)nc5ncccc45)c3)cc2N1 [compound 131, 6-{5-[2-(5-Chloro-2-fluoro-phenyl)-[1,8]naphthyridin-4-yl]-pyridin-3-yl}-4H-benzo[1,4]oxazin-3-one] | < 100 nM | 100 to 1000 nM
CN1CCN(c2ccnc(-c3cncc(-c4cc(-c5cc(Cl)ccc5F)nc5ncccc45)c3)c2)CC1 [compound 132, 2-(5-Chloro-2-fluoro-phenyl)-4-[4-(4-methyl-piperazin-1-yl)-[2,3′]bipyridinyl-5′-yl]-[1,8]naphthyridine] | < 100 nM | < 100 nM
N#Cc1ccnc(-c2cncc(-c3cc(-c4cc(Cl)ccc4F)nc4ncccc34)c2)c1 [compound 133, 5′-[2-(5-Chloro-2-fluoro-phenyl)-[1,8]naphthyridin-4-yl]-[2,3′]bipyridinyl-4-carbonitrile] | > 10000 nM | > 10000 nM
Fc1ccc(Cl)cc1-c1cc(-c2cncc(-c3ccc4c(c3)OCCO4)c2)c2cccnc2n1 [compound 134, 2-(5-Chloro-2-fluoro-phenyl)-4-[5-(2,3-dihydro-benzo[1,4]dioxin-6-yl)-pyridin-3-yl]-[1,8]naphthyridine] | 100 to 1000 nM | < 100 nM
NS(=O)(=O)c1cccc(-c2cncc(-c3cc(-c4cc(Cl)ccc4F)nc4ncccc34)c2)c1 [compound 135, 3-{5-[2-(5-Chloro-2-fluoro-phenyl)-[1,8]naphthyridin-4-yl]-pyridin-3-yl}-benzene-sulfonamide] | < 100 nM | 100 to 1000 nM

More lines, now with the values ahead:

IC50 [1] | IC50 [2] | SMILES
< 100 nM | < 100 nM | CN1CCN(c2ccc(-c3cncc(-c4cc(-c5cc(Cl)ccc5F)nc5ncccc45)c3)nn2)CC1 [compound 113, 2-(5-Chloro-2-fluoro-phenyl)-4-{5-[6-(4-methyl-piperazin-1-yl)-pyridazin-3-yl]-pyridin-3-yl}-[1,8]naphthyridine]
< 100 nM | < 100 nM | CN1CCN(c2ccc(-c3cncc(-c4cc(-c5cc(F)ccc5F)nc5ncccc45)c3)cc2)CC1 [compound 114, 2-(2,5-Difluoro-phenyl)-4-{5-[4-(4-methyl-piperazin-1-yl)-phenyl]-pyridin-3-yl}-[1,8]naphthyridine]
< 100 nM | 100 to 1000 nM | CC(=O)Nc1cccc(-c2cncc(-c3cc(-c4cc(Cl)ccc4F)nc4ncccc34)c2)n1 [compound 115, N-{5′-[2-(5-Chloro-2-fluoro-phenyl)-[1,8]naphthyridin-4-yl]-[2,3′]bipyridinyl-6-yl}-acetamide]
< 100 nM | < 100 nM | CN1CCN(c2cccc(-c3cncc(-c4cc(-c5cc(Cl)ccc5F)nc5ncccc45)c3)c2)CC1 [compound 116, 2-(5-Chloro-2-fluoro-phenyl)-4-{5-[3-(4-methyl-piperazin-1-yl)-phenyl]-pyridin-3-yl}-[1,8]naphthyridine]
< 100 nM | 100 to 1000 nM | CN(C)CCNC(=O)c1cccc(-c2cncc(-c3cc(-c4cc(Cl)ccc4F)nc4ncccc34)c2)c1 [compound 118, 3-{5-[2-(5-Chloro-2-fluoro-phenyl)-[1,8]naphthyridin-4-yl]-pyridin-3-yl}-N-(2-dimethylamino-ethyl)-benzamide]
< 100 nM | < 100 nM | Fc1ccc(F)c(-c2cc(-c3cncc(-c4ccc(OC5CCNCC5)cc4)c3)c3cccnc3n2)c1 [compound 120, 2-(2,5-DifIuoro-phenyl)-4-{5-[4-(piperidin-4-yloxy)-phenyl]-pyridin-3-yl}-[1,8]naphthyridine]
< 100 nM | 100 to 1000 nM | CN1CCN(c2ccc(-c3cncc(-c4cc(-c5cc(F)ccc5F)nc5ncccc45)c3)cn2)CC1 [compound 121, 2-(2,5-Difluoro-phenyl)-4-[6′-(4-methyl-piperazin-1-yl)-[3,3′]bipyridinyl-5-yl]-[1,8]naphthyridine]
